According to PMC7822874, “Chemoprotective antimalarials identified through quantitative high-throughput screening of Plasmodium blood and liver stage parasites” (Scientific Reports, 2021):
Where two headings read alike, the source gives them in different places.

What was measured:
[1] = system: P. falciparum Dd2 (clone B2) asexual blood stage parasites; assay: P. falciparum Dd2 asexual blood stage SYBR Green-I 72 h proliferation assay (qHTS); type: cell-based, Plasmodium falciparum; conditions: averaged P. falciparum asexual blood stage potency, log10 of AC50 in M
[2] = system: P. berghei-ANKA-GFP-LucCON liver stage parasites in HepG2-A16-CD81EGFP cells; assay: P. berghei liver stage Pb-Luc assay, Method 1 (UCSD, 1536-well); type: cell-based, Plasmodium berghei; conditions: P. berghei liver stage, averaged response (percent); for Average P. berghei 1 µM response (%): the header list (r8) defines it as the 1 µM dose
HepG2-A16-CD81EGFP cells = conditions: averaged response (percent)
[3] = HepG2, the header list (r10) describes it as the 1 µM dose

SMILES	Pf ABS Log AC50 (M) [1] [M]	Average P. berghei 3 µM response( %) [2] [%]	Average P. berghei 1 µM response (%) [2] [%]	Average HepG2 3 µM response( %) (HepG2-A16-CD81EGFP cells; HepG2, 3 µM dose) [%]	Average HepG2 3 µM response( %) (HepG2-A16-CD81EGFP cells; [3]) [%]
CCOC(=O)c1c[nH]c2c(C)cc(C)cc2c1=O [MLS000530578]	-5.437	9.48	49	102	102
COc1cccc(CNCC(O)(c2ccc(Cl)cc2)c2ccc(Cl)cc2)c1 [MLS000325699]	-5.812	98	112	101	105
CCOCCCNc1nc2cc(OC)c(OC)cc2c2nc(-c3ccccc3)nn12 [NCGC00112857]	-6.675	104	109	99	97
O=C(c1ccc([N+](=O)[O-])o1)N1CCN(c2nc3c(F)cc(F)cc3s2)CC1 [MLS001234228]	-5.462	65	77	107	103
CC(C)C(=O)OCC(=O)[C@@]12O[C@H](C3CCCCC3)O[C@@H]1C[C@H]1[C@@H]3CCC4=CC(=O)C=C[C@]4(C)[C@H]3[C@@H](O)C[C@@]12C [NCGC00167484]	-5.762	125	137	92	94
CCN(CC)CCn1c(=N)n(CC(O)COc2ccccc2C)c2ccccc21 (stereo not shown) [NCGC00101835]	-5.475	72	117	100	104
O=C1CC(c2ccccc2)N(Cc2ccncc2)CCCN(C(=O)Nc2ccccc2F)CCN1 (stereo not shown) [NCGC00467191]	-5.775	73	88	103	107
Cc1nn2c(c1-c1ccccc1-c1ccccc1)N(Cc1ccc(O)cc1)CCC2 [NCGC00420512]	-6.314	24	80	111	98
COc1cccc(OC)c1C(=O)NC(S)=Nc1ccc2c(c1)C(=O)N(C)C2=O [MLS000331897]	-6.025	113	122	104	104
CCN1CCN(Cc2ccc(NC(=O)c3cc(NC(=O)C(=O)c4c[nH]c5ccccc45)cc(OC)c3)cc2C(F)(F)F)CC1.O=C(O)C(F)(F)F [MLS003105970]	-6.175	54	132	106	106
Cc1ccc2oc(=O)c3cnn(CC(=O)Nc4cccc(C(F)(F)F)c4)c3c2c1 [NCGC00110933]	-5.575	101	114	98	97
CCOC(=O)c1cn(CC)c2cc(N3CCSCC3)c(F)cc2c1=O [MLS000038775]	-6.012	21		85	89
Br.CCOC(=O)c1c(CSC(=N)N)n(-c2ccc(Br)cc2)c2cc(Br)c(OC(C)=O)cc12 [MLS000595146]	-5.712	73	88	102	101
CCOC(=O)Cn1c2c(c(=N)c3c1CCC3)CCCC2 [MLS000702567]	-4.912	104	95	104	104
Cc1cc(Nc2cccc(C(F)(F)F)c2)nc2ccc(NC(=O)c3cncc(Br)c3)cc12 [NCGC00124348]	-5.625	38	76	101	107
CCOC(=O)N1CCc2c(sc3nc4n(c(=O)c23)N=C(c2ccc(OC)cc2)CS4)C1 [MLS000859689]	-5.012	87	113	98	100
COc1ccccc1NC(=O)CN1CCN(C(=O)c2ccco2)CC1 [MLS000122729]	-5.462	65	115	102	102
O=C(O)c1ccc(-c2nc3cnccc3[nH]2)cc1 [NCGC00375713]	-5.264	94	106	104	105
CC1CCN(C(=O)CSc2nc(-c3ccc(C(C)C)cc3)no2)CC1 [NCGC00127906]	-5.925	103	130	105	105
Cc1ccc(-n2c(C)cc(C(=O)OCC(=O)N(C)C3CCS(=O)(=O)C3)c2C)cc1 (stereo not shown) [MLS000098265]	-5.487	106	136	101	101
CCOc1ccc(Nc2nc(NCC3CCCO3)c3ccccc3n2)cc1 (stereo not shown) [MLS000724397]	-5.737	10	59	84	102
Cc1ccc(O)c([C@H](CCN(C(C)C)C(C)C)c2ccccc2)c1 [NCGC00159519]	-5.437	83	97	104	100
CCc1cccc(-n2c(=O)c3cccnc3n2CC(=O)Nc2ccc(F)c(C)c2)c1 [NCGC00128424]	-5.575	91	110	103	107
c1ccc(CNc2nc(-c3ccccn3)nc3ccccc23)cc1 [MLS001165148]	-5.662	8	72	87	96
COc1cc(O)c(C(CCN2CCCC(C)C2)c2cc(OC)c(OC)c(OC)c2)c(OC)c1 (stereo not shown) [MLS000879467]	-5.687	71		86	89
CCC(CC)c1cc([C@H]2CN3CC[C@H]2C[C@@H]3CNC(C)=O)nc(-c2ccncc2)n1 [NCGC00394634]	-4.814	53	49	106	107
COc1ccc(N2CCN(c3cc(C4CC(N)C4)nc(N)n3)CC2(C)C)cc1 (stereo not shown) [NCGC00422579]	-5.525	82	91	100	102
